{"source": "paper PMC10692163", "about": "“Structure-based discovery of novel P-glycoprotein inhibitors targeting the nucleotide binding domains” (Scientific Reports, 2023)", "key": {"P-gp [1]": {"target": "T1, P-gp (Homo sapiens, UniProt P08183)", "T1 sequence (P08183 whole entry)": "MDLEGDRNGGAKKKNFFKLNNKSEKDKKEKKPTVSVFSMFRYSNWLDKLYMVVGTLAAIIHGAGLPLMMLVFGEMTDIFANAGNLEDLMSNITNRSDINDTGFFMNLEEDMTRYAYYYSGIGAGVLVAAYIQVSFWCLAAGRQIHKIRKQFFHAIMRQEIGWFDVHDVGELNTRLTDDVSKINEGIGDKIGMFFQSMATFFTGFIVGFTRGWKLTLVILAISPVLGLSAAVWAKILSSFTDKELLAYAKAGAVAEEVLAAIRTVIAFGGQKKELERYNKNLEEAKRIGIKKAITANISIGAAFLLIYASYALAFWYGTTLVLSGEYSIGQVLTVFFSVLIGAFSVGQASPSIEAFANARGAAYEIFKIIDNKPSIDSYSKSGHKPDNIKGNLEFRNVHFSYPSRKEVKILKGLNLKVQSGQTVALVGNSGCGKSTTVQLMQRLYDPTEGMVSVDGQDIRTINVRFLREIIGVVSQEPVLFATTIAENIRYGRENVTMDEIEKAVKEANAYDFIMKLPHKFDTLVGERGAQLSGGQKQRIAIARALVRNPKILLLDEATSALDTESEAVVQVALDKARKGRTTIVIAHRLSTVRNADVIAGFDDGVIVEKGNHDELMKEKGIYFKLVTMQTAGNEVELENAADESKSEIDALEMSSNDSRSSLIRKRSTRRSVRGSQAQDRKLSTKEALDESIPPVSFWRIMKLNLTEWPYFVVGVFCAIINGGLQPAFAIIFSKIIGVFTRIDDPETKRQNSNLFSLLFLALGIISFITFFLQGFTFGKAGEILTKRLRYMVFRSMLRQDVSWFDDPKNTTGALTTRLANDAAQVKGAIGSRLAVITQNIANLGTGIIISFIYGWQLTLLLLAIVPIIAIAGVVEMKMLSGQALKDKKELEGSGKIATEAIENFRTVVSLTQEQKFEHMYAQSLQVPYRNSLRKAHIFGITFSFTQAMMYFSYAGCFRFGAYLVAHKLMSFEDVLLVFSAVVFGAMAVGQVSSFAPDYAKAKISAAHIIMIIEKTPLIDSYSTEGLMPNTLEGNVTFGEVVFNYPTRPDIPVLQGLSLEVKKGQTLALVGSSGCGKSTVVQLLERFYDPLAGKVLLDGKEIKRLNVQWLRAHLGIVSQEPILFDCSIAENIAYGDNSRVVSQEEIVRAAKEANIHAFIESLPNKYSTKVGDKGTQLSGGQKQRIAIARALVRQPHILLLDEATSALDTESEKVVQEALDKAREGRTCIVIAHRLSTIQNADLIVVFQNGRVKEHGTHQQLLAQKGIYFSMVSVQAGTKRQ", "assay": "Inhibition of verapamil-stimulated sensitive ATPase activity (ATP consumption) in P-gp expressing Sf9 vesicles", "type": "biochemical", "parameters": "purchased GenoMembrane Co., Ltd (Kanagawa, Japan); host or cells: Sf9 insect cells infected with baculovirus; purified plasma membrane vesicles", "settings": "for IC50: 50 µM verapamil", "protocol": "P-gp-mediated drug transport across membranes is driven by energy derived from hydrolysis of ATP. It is, therefore, possible to evaluate drug binding to P-gp by determining the ATPase activity. The method was modified from the procedure reported by Sarkadi et al.[64]. Briefly, solutions of test compounds and positive and negative controls in a reaction medium containing 50 mM MOPS-Tris (pH 7.4), 0.1 mM EGTA, 2 mM DDT, 50 mM KCl, 5 mM sodium azide, and 1 mM ouabain were incubated on ice in a 96 well plate. Then P-gp containing membrane vesicles to a final concentration of 0.5 mg/ml were added on ice to each well. […] Then, the ATPase reaction was started by the addition of MgATP to a final concentration of 5 mM and the plates with vesicles were incubated at 37 ^∘ C for 60 min. The reaction was stopped by the addition of a 10% SDS solution and the amount of inorganic phosphate was determined immediately by addition of a coloring solution containing final concentrations of 8 mM ascorbic acid, 10 mM zinc acetate, and 7 mM ammonium molybdate. The wells were then incubated at 37 ^∘ C for 20 min and the absorbance was scanned at wave lengths from 630 to 850 nm, and 740 nm was used for calculation of ATP consumption based on a phosphate standard curve freshly made with each experiment. To estimate sensitive ATPase activity mediated by P-gp, all experiments were conducted with no compound controls (2% DMSO), positive controls and background controls in which no stop solution was added, all in the absence and presence of 500 µM vanadate. The absorbance measured for a test condition was converted to nmol inorganic phosphate and normalized for reaction time and protein amount. The sensitive ATPase activity was then obtained by subtracting the inorganic phosphate generated in the presence of 500 µM vanadate at otherwise similar conditions.\n(§1) Calcein fluorescence in arbitrary unit (a.u) corrected for background signal, which was the signal obtained from the cells incubated with HBSS ^7.4+ or HBSS ^5.5+ without calcein-AM, was plotted as a function of time and slopes (denoted m below) were obtained by linear regression. The increase in fluorescent calcein is a surrogate marker of increased P-gp inhibition. The slope from curves of fluorescence as a function of time for a compound ( mcompound ) was normalized to the slope of fluorescence in cells exposed to HBSS ^7.4+ or HBSS ^5.5+ only (referred as control, mcontrol )."}, "P-gp [2]": {"target": "T1, P-gp", "assay": "Calcein-AM efflux assay in MDCKII MDR1 cells", "type": "cell-based", "parameters": "host or cells: MDCKII MDR1 cells", "protocol": "Calcein-AM efflux experiments were performed on MDCKII MDR1 cells, which were seeded on black 96-well microplates. Before the experiments, media was removed from the wells and 50 µL pre-warmed HBSS ^7.4+ was added. After a 15 min incubation period, the HBSS ^7.4+ buffer was removed and 50 µL of solution containing P-gp inhibitor or test compound dissolved in HBSS ^7.4+ or HBSS ^5.5+ were added to the individual wells, followed by addition of 50 µL 10.0 µM calcein-AM giving a final calcein-AM concentration of 5.0 µM. Calcein-AM diffuses into the cell where it is either hydrolysed to a membrane-impermeable fluorescent calcein dye or extruded from the cell by P-gp[63]. Inhibiting P-gp increases the amount of calcein in the cell and a higher amount is hydrolysed to calcein, thus the fluorescence measured is increased. The highest concentration of each compound was added to a cell-containing well in the absence of calcein-AM to investigate if compounds were fluorescent themselves.\nas §1"}, "[3]": {"system": "P-gp nucleotide binding domain", "settings": "Table S1, supplement reference list, cited from earlier work"}, "P-gp [4]": {"target": "T1, P-gp", "parameters": "method as in PMID 1356264, PMID 7911680, PMID 7772017, PMID 11121420", "settings": "read-out: Binding affinity for ATP to P-gp; cited from earlier work"}, "[5]": {"settings": "Sf9 vesicles expressing human P-gp, 5 mM MgATP, 60 min, 37 °C, read-out: ATP assay IC50"}}, "note": "Read-outs that look alike come from different tables or passages of the source.", "data": [{"compound": "Cn1cnnc1CC(NS(=O)(=O)N1CCC(C(C)(C)C)CC1)C(=O)O", "note": "(centres unmarked) [compound 10]", "values": [{"measurement": "IC50", "setting": "P-gp [1]; [5]", "result": 332, "unit": "µM"}, {"measurement": "IC50", "setting": "P-gp [1]; log of IC50 in µM, Sf9 vesicles, read-out: ATP assay Log IC50 (converted)", "result": 331, "unit": "µM"}, {"measurement": "IC50", "setting": "P-gp [2]; MDCKII MDR1 cells, extracellular pH 5.5, 5.0 µM calcein-AM, read-out: Calcein-AM, pH 5.5 IC50", "result": 127, "unit": "µM"}, {"measurement": "IC50", "setting": "P-gp [2]; MDCKII MDR1 cells, extracellular pH 7.4, 5.0 µM calcein-AM, read-out: Calcein-AM, pH 7.4 IC50", "result": 299, "unit": "µM"}, {"measurement": "Ability to inhibit calcein-AM efflux", "setting": "P-gp [2]; at both pH 5.5 and pH 7.4", "result": "ability to inhibit calcein-AM efflux at both pH 5.5 and pH 7.4"}, {"measurement": "Calcein-AM, pH 5.5 LogIC50", "setting": "P-gp [2]; log of IC50 in µM, extracellular pH 5.5", "result": 2.10}, {"measurement": "IC50", "setting": "P-gp [2]; log of IC50 in µM, extracellular pH 7.4, read-out: Calcein-AM, pH 7.4 Log IC50 (converted)", "result": 302, "unit": "µM"}]}, {"compound": "Oc1cc(O)c2c(c1)O[C@H](c1ccc(O)c(O)c1)[C@H](O)C2", "note": "[Epicatechin]", "values": [{"measurement": "Class (known P-gp NBD inhibitor)", "setting": "[3]; ref [5]", "result": "Marginal"}]}, {"compound": "C=C(CO)[C@H]1Cc2c(ccc3c2O[C@@H]2COc4cc(OC)c(OC)cc4[C@]2(O)C3=O)O1", "note": "[12a-Hydroxyamorphigenin]", "values": [{"measurement": "Class (known P-gp NBD inhibitor)", "setting": "[3]; ref [1]", "result": "Marginal"}]}, {"compound": "Oc1cc(O)c2c(c1)O[C@H](c1cc(O)c(O)c(O)c1)[C@H](O)C2", "note": "[Epigallocatechin]", "values": [{"measurement": "Class (known P-gp NBD inhibitor)", "setting": "[3]; ref [1]", "result": "Marginal"}]}, {"compound": "COc1ccc(-c2coc3cc(O)cc(O)c3c2=O)cc1", "note": "[Biochanin A]", "values": [{"measurement": "Class (known P-gp NBD inhibitor)", "setting": "[3]; ref [2]", "result": "Active"}]}, {"compound": "O=c1c(O)c(-c2ccccc2)oc2ccccc12", "note": "[3OH-flavone]", "values": [{"measurement": "Class (known P-gp NBD inhibitor)", "setting": "[3]; ref [4]", "result": "Marginal"}]}, {"compound": "Mitragynine", "values": [{"measurement": "Class (known P-gp NBD inhibitor)", "setting": "[3]; ref [6]", "result": "Marginal"}]}, {"compound": "COc1ccc(-c2oc3cc(O)cc(O)c3c(=O)c2O)cc1", "note": "[kaempferide]", "values": [{"measurement": "Class (known P-gp NBD inhibitor)", "setting": "[3]; ref [4]", "result": "Marginal"}]}, {"compound": "O=c1c(O)c(-c2ccc(O)cc2)oc2cc(O)cc(O)c12", "note": "[kaempferol]", "values": [{"measurement": "Class (known P-gp NBD inhibitor)", "setting": "[3]; ref [4]", "result": "Marginal"}]}, {"compound": "C=C(CO)[C@H]1Cc2c(ccc3c2O[C@@H]2COc4cc(OC)c(OC)cc4[C@@H]2C3=O)O1", "note": "[Amorphigenin]", "values": [{"measurement": "Class (known P-gp NBD inhibitor)", "setting": "[3]; ref [1]", "result": "Marginal"}]}, {"compound": "COc1cc(C2Oc3cc([C@H]4Oc5cc(O)cc(O)c5C(=O)[C@@H]4O)ccc3OC2CO)ccc1O", "note": "(some centres unmarked) [Silybin]", "values": [{"measurement": "Class (known P-gp NBD inhibitor)", "setting": "[3]; ref [4]", "result": "Marginal"}]}, {"compound": "O=C(O[C@@H]1Cc2c(O)cc(O)cc2O[C@@H]1c1cc(O)c(O)c(O)c1)c1cc(O)c(O)c(O)c1", "note": "[Epigallocatechingallate (EGCG), Epigallocatechingallate]", "values": [{"measurement": "Class (known P-gp NBD inhibitor)", "setting": "[3]; ref [3]", "result": "Active"}]}, {"compound": "O=c1c(O)c(-c2ccccc2)oc2cc(O)cc(O)c12", "note": "[Galangin]", "values": [{"measurement": "Class (known P-gp NBD inhibitor)", "setting": "[3]; ref [4]", "result": "Marginal"}]}, {"compound": "C=C(C)[C@H]1Cc2c(ccc3c2O[C@@H]2COc4cc(OC)c(OC)cc4[C@@H]2C3=O)O1", "note": "[Rotenone]", "values": [{"measurement": "Class (known P-gp NBD inhibitor)", "setting": "[3]; ref [1]", "result": "Active"}]}, {"compound": "O=c1cc(-c2ccc(O)cc2)oc2cc(O)cc(O)c12", "note": "[Apigenin]", "values": [{"measurement": "Class (known P-gp NBD inhibitor)", "setting": "[3]; ref [4]", "result": "Marginal"}]}, {"compound": "O=c1cc(-c2ccccc2)oc2cc(O)cc(O)c12", "note": "[Chrysin]", "values": [{"measurement": "Class (known P-gp NBD inhibitor)", "setting": "[3]; ref [1]", "result": "Marginal"}]}, {"compound": "C=C(CO)C1Cc2c(ccc3c(=O)c4c(oc23)COc2cc(OC)c(OC)cc2-4)O1", "note": "(centres unmarked) [6a,12a,-Dehydroamorphigenin]", "values": [{"measurement": "Class (known P-gp NBD inhibitor)", "setting": "[3]; ref [1]", "result": "Marginal"}]}, {"compound": "COc1cc2c(cc1OC)CN(CCc1ccc(NC(=O)c3cc(OC)c(OC)cc3NC(=O)c3cnc4ccccc4c3)cc1)CC2", "note": "[Tariquidar]", "values": [{"measurement": "Effect on verapamil-stimulated sensitive P-gp ATPase activity", "setting": "P-gp [1]; 1 µM Tariquidar plus 50 µM verapamil", "result": "reduced to the background buffer level"}, {"measurement": "IC50", "setting": "P-gp [1]; [5]", "result": 0.11, "unit": "µM"}]}, {"compound": "Nc1ncnc2c1ncn2[C@@H]1O[C@H](COP(=O)(O)OP(=O)(O)OP(=O)(O)O)[C@@H](O)[C@H]1O", "note": "[ATP]", "values": [{"measurement": "Kd", "setting": "P-gp [4]", "result": "300 to 800", "unit": "µM"}]}]}
